We go through one molecule from patent US12139472B2, “Inhibitors of advanced glycation end products” (priority 2019, dated 2024).

In one data set the test system is seven CYP enzymes. Nature of the data set: Eurofins G232 panel, CYP inhibition in human liver microsomes. Format: in vitro ADME. Particulars: HLM, 10 μM. As for the experimental part:
(§1) Two studies were conducted in human liver microsomes (HLM). Lead candidate PTG-630 was tested using the Eurofins G232 panel (Drug Metab Dispos. 2001 January; 29(1):23-9), where inhibition was measured against seven CYP enzymes; CYP3A4 was tested using two different substrates, midazolam and testosterone. In a second study, inhibition of CYP3A4 (midazolam substrate only) was compared for 8 compounds of interest. The test protocol involved one-point measurements in duplicate, where inhibition was measured at a fixed 10 μM concentration of candidate inhibitors. In all cases, the substrate for each CYP enzyme was at a concentration equal to its specific Km value that was independently obtained from an 8-point dose-response study. Based on the observed value for percent inhibition for each test compound, we calculated of an IC50 assuming a competitive mode of inhibition. If percent inhibition for an inhibitor at a concentration of [I] is denoted by P, then: IC50=[I]*(100−P)/P In the single-point assay, [I] is 10 μM. If measured inhibition is 10%, then IC50=10*(100-10)/10=90 μM. […] As discussed in Lin et al. (J Pharm Sci. 2007 September; 96(9):2485-93; doi: 10.1002/jps.20884), CYP inhibition is broadly interpreted as being “potent” if IC50<1 μM, “moderate” if 1 μM<IC50<10 μM, and “weak” if IC50>10 μM.
(Liver microsomes are vesicles of endoplasmic reticulum, rich in cytochrome P450 enzymes.)

For a further data set, the target named is T1, CYP2C9 (Homo sapiens, UniProt P11712).
T1 construct: Two studies were conducted in human liver microsomes (HLM); tissue Eurofins G232 panel; host or cells: human liver microsomes
Nature of the data set: CYP2C9 inhibition (HLM), diclofenac. Format: in vitro ADME. As for the experimental part:
Compound 5 (PTG-630 free base) and 7 additional compounds for CYP3A P450 inhibition.
as §1

T1 sequence (P11712 whole entry): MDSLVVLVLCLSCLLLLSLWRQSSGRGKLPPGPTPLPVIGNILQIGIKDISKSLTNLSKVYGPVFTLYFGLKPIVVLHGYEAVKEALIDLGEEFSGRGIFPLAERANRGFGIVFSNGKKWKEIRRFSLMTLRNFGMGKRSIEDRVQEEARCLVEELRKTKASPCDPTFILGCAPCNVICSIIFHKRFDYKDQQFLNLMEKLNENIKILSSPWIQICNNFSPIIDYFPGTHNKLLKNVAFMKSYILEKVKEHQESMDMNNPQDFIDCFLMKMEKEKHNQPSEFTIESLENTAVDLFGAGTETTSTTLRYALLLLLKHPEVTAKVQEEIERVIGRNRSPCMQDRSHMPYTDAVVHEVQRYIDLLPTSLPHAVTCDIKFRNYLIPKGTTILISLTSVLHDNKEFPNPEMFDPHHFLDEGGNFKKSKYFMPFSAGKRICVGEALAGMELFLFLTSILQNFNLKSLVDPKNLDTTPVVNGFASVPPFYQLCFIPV

As to `Cc1ncc(CN2CCOCC2)c(-c2ncc[nH]2)c1O` [PTG-630], the “CYP inhibition (in words)” value with seven CYP enzymes is given as “weak to undetectable”. The IC50 at CYP2C9 (diclofenac, from one-point % inhibition at 10 μM, IC50=[I]*(100−P)/P, read-out: Estimated IC50) was 284 µM. For the same molecule, the P % inhib on CYP2C9 (substrate diclofenac at Km, Inhib Conc. 1.0E−05 M) stood at 3.4%.

What is called IC50 is the concentration needed to halve the response being measured.
